Assay results from the SangsterLogP compilation.

In order of falling logP:
1. Brc1ccc2cccnc2c1  2.92
2. CSc1cnc2ccccc2n1  2.79
3. CCC(=O)Nc1ccnc2cc(Cl)ccc12  2.73
4. CN(C)c1cccc2cccnc12  2.73
5. CN(C)c1ccc2cccnc2c1  2.71
6. Clc1ccc2ccccc2n1  2.71
7. CC(=O)c1ccnc2cc(Cl)ccc12  2.62
8. O=S(=O)(c1ccccc1)c1ccc2ncccc2c1  2.57
9. CC(=O)c1ccc2ccccc2n1  2.54
10. COc1ccc2cccnc2c1  2.37
11. COc1cnc2ccccc2n1  2.31
12. Cc1cc2nccnc2cc1C  2.29
13. Clc1cnc2ccccc2n1  2.23
14. CCOc1ccc2nccnc2c1  2.22
15. Clc1ccc2nccnc2c1  2.1
16. O=[N+]([O-])c1ccnc2ccccc12  2.06
17. Cc1cccc2nccnc12  2.04
18. N#Cc1ccnc2ccccc12  1.98
19. O=[N+]([O-])c1cnc2ccccc2c1  1.97
20. CC(=O)Nc1cnc2ccccc2c1  1.92
21. CCOC(=O)c1cccc2cccnc12  1.83
22. Clc1cccc2nccnc12  1.75
23. CCOC(=O)Oc1cccc2cccnc12  1.73
24. Nc1cnc2ccccc2c1  1.63
25. Nc1ccnc2ccccc12  1.63
26. Cc1cnc2ccccc2n1  1.61
27. CC(=O)Nc1ccc2ncccc2c1  1.55
28. Nc1cnc2ccccc2n1  1.5
29. CN(C)c1ccncc1  1.34
30. Clc1cccnc1  1.33
31. Nc1cccc2nccnc12  1.29
32. O=COc1ccccc1  1.26
33. Cc1cccc2c1ncc[n+]2[O-]  1.2
34. N#Cc1ccc2nccnc2c1  1.01
35. COc1ccncc1  1
36. Cc1ccc([N+](=O)[O-])cn1  0.99
37. Nc1ccc2nccnc2c1  0.9
38. COC(=O)c1ccncc1  0.87
39. Cc1cccc(C#N)n1  0.84
40. CC(=O)c1ccccn1  0.83
41. Cc1cc(C#N)ccn1  0.81
42. CS(=O)(=O)c1cnc2ccccc2n1  0.79
43. CC(=O)Nc1cccc2ncccc12  0.71
44. Cc1cnc(C)cn1  0.63
45. O=[N+]([O-])c1cccnc1  0.6
46. N#Cc1ccccn1  0.5
47. O=[N+]([O-])c1ccccn1  0.48
48. N#Cc1ccncc1  0.46
49. CC(=O)c1cccnc1  0.43
50. CC(=O)Nc1cccnc1  0.41
51. N#Cc1cccnc1  0.36
52. Cc1cnccn1  0.23
53. Nc1cnccn1  -0.07
54. Cc1ccc2c(c1)N(O)C=CN2O  -0.35
